Test results published in patent US8017585B2, “CXCR4 antagonist and use thereof” (priority 2002, dated 2011).
Bridge positions count the residues as written; N and C are the ends. Square brackets hold non-standard residues; d marks the D form. Peptide text beside a SMILES is read from it. * marks the point of attachment. X4 = CN(C)C(=N[C@@H](CCCNC(=N)N)C(=O)*)N(C)C; 2Nal = N[C@@H](Cc1ccc2ccccc2c1)C(=O)O; dCit = NC(=O)NCCC[C@@H](N)C(=O)O; Cit = NC(=O)NCCC[C@H](N)C(=O)O; Ahx = NCCCCCC(=O)O

Columns and labels:
[1] = tested on: mouse collagen-induced arthritis; test: Mouse collagen-induced arthritis; assay type: in vivo, DBA/1JN mouse; conditions: known drugs p.o. daily for 2 weeks: Indomethacin 1 mg/kg, methotrexate 3 mg/kg, FK-506 10 mg/kg
Description: FK-506 was purified by a known method (Kino T. et al., J. Antibiot., 1987 40(9): 1249-55). […] For 2 weeks after the additional immunization, body weights and hindlimb thickness were measured and arthritis scoring was made. Arthritis scores were scored at 0-3 points of each limb, and evaluated by the total of the same (12 points being the full points; 0, normal; 1, mild swelling or swelling of a single digit; 2, moderate swelling or swelling of plural digits; 3, severe swelling). Two weeks after the immunization, four limbs and sera were picked. After coat blocking bovine type II collagen (10 μg/mL PBS solution) on the immunoplate, 100 μL of 1000 times diluted mouse serum was added, and kept at room temperature for 2 hours. After cleansing, anti-mouse IgG2a antibody (1000 times dilution) was added. After cleansing, TMB was added, kept at room temperature for 30 minutes, H2SO4 of equal amount was added, and A450 nm was measured. Indomethacin (1 mg/kg), methotrexate (3 mg/kg) and FK-506 (10 mg/kg) were suspended to 0.5% methyl cellulose, and orally administered every day for 2 weeks from the day of the additional immunization at the dose of 0.1 mL/10 g body weight. 0.5% methyl cellulose solution of the equal dose was orally administered to the control group. 4Fbenzoyl-TN14003 was dissolved to PBS, and continuously administered using Alzet osmotic pumps (Alza, 0.5 μL/hr 2 weeks). The osmotic pumps were implanted intradermally to the backs of the mice under ether anesthesia on the day before the additional immunization. As the control, pumps injected with PBS were similarly implanted. Evaluation of each drug was made for the value obtained 2 weeks after the additional immunization. Data were expressed as mean value±standard margin of error (n=8-12). Comparison between 2 groups was made by Student's t-test, p≦0.05 was valued as significant. Multiple comparison was made by Dunnett test, p≦0.05 was valued as significant.

CXCR4 receptor = target: T1, CXCR4 receptor (Homo sapiens, UniProt P61073); test: Inhibition of 125I-CXCL12 binding to CXCR4 receptor on Jurkat cells; conditions: Table 1, 125I-CXCL12, 1 hour at room temperature, compounds as acetate salt, read-out: IC50 (nM), inhibitory activity against CXCL12 binding to CXCR4 receptor
T1 construct: 50 μL of Jurkat human T-cell leukemia cells (6×10^6 cells/mL) suspended in buffer; endogenous in cells; host or cells: Jurkat human T-cell leukemia cells
T1 sequence (P61073 whole entry): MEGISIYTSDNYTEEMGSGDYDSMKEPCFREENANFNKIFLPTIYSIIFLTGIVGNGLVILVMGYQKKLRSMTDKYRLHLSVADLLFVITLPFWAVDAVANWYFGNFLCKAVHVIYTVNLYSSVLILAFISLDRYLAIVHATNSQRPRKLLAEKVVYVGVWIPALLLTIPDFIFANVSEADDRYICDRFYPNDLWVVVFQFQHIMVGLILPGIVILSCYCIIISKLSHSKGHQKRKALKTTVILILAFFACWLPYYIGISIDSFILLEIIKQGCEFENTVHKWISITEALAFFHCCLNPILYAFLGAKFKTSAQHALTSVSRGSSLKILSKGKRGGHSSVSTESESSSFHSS
Description: After reaction, suction was made toward the reaction solution by 96 well GF/C filter plate, and each well's radioactivity was measured by top count. As the radioactivity index of 100% when the test compound was not added, and 0% when 100 nM of non-radioisotope-labeled CXCL12 was added, the inhibitory activity of each test compound was measured.

[2] = tested on: human breast cancer MDA-MB-231 cells; test: Inhibition of CXCL12-induced breast cancer cell migration (Transwell); assay type: cell-based; conditions: 10 nM of the antagonist; 100 nM CXCL12; 15 hours
Description: Transwell filter (polycarbonate filter, 8 μm diameter, Costar Company) was treated at 37° C. for 6 hours in 10 μg/mL fibronectin solution and air-dried. 100 nM of CXCL12 (R&D System Company) and 600 μL/well of buffer-A (0.1% bovine serum albumin, DMEM (GibcoBRL) containing 12 mM HEPES) containing the test compound were added to the lower chamber of the Transwell. The test compound and human breast cancer MDA-MB-231 cells (purchased from American Tissue Culture Collection), and 100 μL/well of buffer A containing 2×10^6 cells/mL were added to the upper chamber. […] Cutting off the filter part, adding 0.1 M sodium citrate/50% ethanol solution, and eluting crystal violet absorption at 550 nm was measured. […]
After 15 hours' incubation at 37° C. in 5% CO2 incubator, the upper surface of the filter was wiped and the cell was removed, and then the cell on the lower surface of the filter was fixed and stained with 25% methanol solution containing 0.5% crystal violet (Wako Pure Chemical Ind.), washed by distilled water and air-dried. Cutting off the filter part, adding 0.1 M sodium citrate/50% ethanol solution, and eluting crystal violet absorption at 550 nm was measured. […]

Row | SMILES | arthritis score [1] | hindlimb swelling [1] | IC50 (CXCR4 receptor) [nM] | CXCL12-induced migration of MDA-MB-231 cells [2]
1 | COc1ccc2c(c1)c(CC(=O)O)c(C)n2C(=O)c1ccc(Cl)cc1 [Indomethacin, reference compound] | significant or evident inhibitory activity | significantly inhibited | – | –
2 | N=C(N)NCCC[C@H](NC(=O)[C@@H]1CSSC[C@H](NC(=O)[C@H](Cc2ccc3ccccc3c2)NC(=O)[C@H](CCCNC(=N)N)NC(=O)[C@@H](N)CCCNC(=N)N)C(=O)N[C@@H](Cc2ccc(O)cc2)C(=O)N[C@@H](CCCNC(=N)N)C(=O)N[C@@H](CCCCN)C(=O)N[C@H](CCC(=O)O)C(=O)N2CCC[C@H]2C(=O)N[C@@H](Cc2ccc(O)cc2)C(=O)N[C@@H](CCCNC(=N)N)C(=O)N[C@@H](CCCNC(N)=O)C(=O)N1)C(=O)O [TE14005, H-Arg-Arg-Nal-Cys-Tyr-Arg-Lys-DGlu-Pro-Tyr-Arg-Cit-Cys-Arg-OH] (H-RR[2Nal]CYRK[dE]PYR[Cit]CR-OH; disulfide 4-13) | – | – | 2.2 | inhibited
3 | N=C(N)NCCC[C@H](NC(=O)[C@@H]1CSSC[C@H](NC(=O)[C@H](Cc2ccc3ccccc3c2)NC(=O)[C@@H](N)CCCNC(=N)N)C(=O)N[C@@H](Cc2ccc(O)cc2)C(=O)N[C@@H](CCCNC(N)=O)C(=O)N[C@@H](CCCCN)C(=O)N[C@H](CCC(=O)O)C(=O)N2CCC[C@H]2C(=O)N[C@@H](Cc2ccc(O)cc2)C(=O)N[C@@H](CCCNC(=N)N)C(=O)N[C@@H](CCCNC(N)=O)C(=O)N1)C(N)=O [TF17, H-Arg-Nal-Cys-Tyr-Cit-Lys-DGlu-Pro-Tyr-Arg-Cit-Cys-Arg-NH2] (H-R[2Nal]CY[Cit]K[dE]PYR[Cit]CR-NH2; disulfide 3-12) | – | – | 79 | –
4 | CN(C)C(=N[C@@H](CCCNC(=N)N)C(=O)N[C@@H](CCCNC(=N)N)C(=O)N[C@@H](Cc1ccc2ccccc2c1)C(=O)N[C@H]1CSSC[C@@H](C(=O)N[C@@H](CCCNC(=N)N)C(N)=O)NC(=O)[C@H](CCCNC(N)=O)NC(=O)[C@H](CCCNC(=N)N)NC(=O)[C@H](Cc2ccc(O)cc2)NC(=O)[C@@H]2CCCN2C(=O)[C@@H](CCCNC(N)=O)NC(=O)[C@H](CCCCN)NC(=O)[C@H](CCCNC(N)=O)NC(=O)[C@H](Cc2ccc(O)cc2)NC1=O)N(C)C [TF18, TMguanyl-Arg-Arg-Nal-Cys-Tyr-Cit-Lys-DCit-Pro-Tyr-Arg-Cit-Cys-Arg-NH2] (X4-R[2Nal]CY[Cit]K[dCit]PYR[Cit]CR-NH2; disulfide 3-12) | – | – | 8 | –
5 | N=C(N)NCCC[C@H](NC(=O)[C@@H]1CSSC[C@H](NC(=O)[C@H](Cc2ccc3ccccc3c2)NC(=O)[C@H](CCCNC(=N)N)NC(=O)[C@H](CCCNC(=N)N)NC(=O)CCCCCN)C(=O)N[C@@H](Cc2ccc(O)cc2)C(=O)N[C@@H](CCCNC(N)=O)C(=O)N[C@@H](CCCCN)C(=O)N[C@H](CCCNC(N)=O)C(=O)N2CCC[C@H]2C(=O)N[C@@H](Cc2ccc(O)cc2)C(=O)N[C@@H](CCCNC(=N)N)C(=O)N[C@@H](CCCNC(N)=O)C(=O)N1)C(N)=O [TF19, ACA-Arg-Arg-Nal-Cys-Tyr-Cit-Lys-DCit-Pro-Tyr-Arg-Cit-Cys-Arg-NH2] (H-[Ahx]RR[2Nal]CY[Cit]K[dCit]PYR[Cit]CR-NH2; disulfide 5-14) | – | – | 4.5 | –
6 | CN(Cc1cnc2nc(N)nc(N)c2n1)c1ccc(C(=O)N[C@@H](CCC(=O)O)C(=O)O)cc1 [methotrexate, reference compound] | significant or evident inhibitory activity | significantly inhibited | – | –
